The results in this text go back to ChEMBL document CHEMBL1201862, “PubChem BioAssay data set” (2004).

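These data come from cells grown in 96-well plates and exposed to compound for 48 hours at five concentrations. GI50 is the concentration that inhibits growth by half.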 Active and inactive are the calls of the source. No stated cut-off is given here; in the data, active = GI50 up to about 1.1 µM and inactive = higher.

Some test systems named below: ACHN; BT-549; CCRF-CEM; COLO 205; HCT-116; HOP-62; IGROV-1; K562; M14; MDA-MB-435; MOLT-4; NCI-H23; NCI-H460; PC-3; RPMI-8226; SF-268; SK-MEL-5; SR; UACC-62; HL-60.
What all share (assay): growth of human tumour cells (NCI), 48 h

Regarding `CN1C(=O)C(=CNc2ccccc2[N+](=O)[O-])C(=O)N(C)C1=O`, the GI50 with ACHN, in the test on BT-549, in the test with CCRF-CEM, with COLO 205, in the test with HCT-116 and in the test with HOP-62 was > 100 µM (inactive) in each case. Further, the GI50 in the test with IGROV-1, in the test on K562, in the test on M14, in the test with MDA-MB-435, in the test on MOLT-4 and with NCI-H23 was > 100 µM (inactive) each time. Moreover, the GI50 in the test with NCI-H460, with PC-3, in the test with RPMI-8226, in the test on SF-268, in the test with SK-MEL-5 and in the test on SR was > 100 µM (inactive) throughout. In the test on UACC-62, the GI50 is > 100 µM (inactive).
For `CC(C)(C)OC(=O)[C@@H]1CCC(=S)N1Cc1ccccc1`, the GI50 with ACHN was > 100 µM (inactive); in the test with BT-549, 71.8 µM (inactive); with CCRF-CEM it was > 100 µM (inactive); with COLO 205 it was > 100 µM (inactive); with HCT-116, > 100 µM (inactive); with IGROV-1, > 100 µM (inactive). The GI50 in the test on K562 was > 100 µM (inactive); in the test on M14 it was > 100 µM (inactive); in the test on MDA-MB-435 it was > 100 µM (inactive); in the test on MOLT-4, 93.1 µM (inactive); in the test with NCI-H23, 70.1 µM (inactive); in the test with NCI-H460 it was > 100 µM (inactive). The GI50 is > 100 µM (inactive) in the test on PC-3; > 100 µM (inactive) in the test with RPMI-8226; 47.4 µM (inactive) in the test on SK-MEL-5; 76.9 µM (inactive) with SR; > 100 µM (inactive) in the test on UACC-62.
`C=CCCCCOC1C=CC(O)C(CO)O1` (stereo unspecified): the GI50 with ACHN, with BT-549, in the test on CCRF-CEM, in the test with COLO 205, in the test on HCT-116 and in the test with HL-60 was > 100 µM (inactive) each time. Further, the GI50 in the test on HOP-62, with IGROV-1, in the test on K562, with M14, with MDA-MB-435 and in the test on MOLT-4 was > 100 µM (inactive) in each case. Moreover, the GI50 in the test with NCI-H23, in the test with NCI-H460, with PC-3, in the test with RPMI-8226, in the test with SF-268 and with SK-MEL-5 was > 100 µM (inactive) throughout. In addition, the GI50 in the test on UACC-62 was > 100 µM (inactive).
Consider `Cn1c(N)nc(-c2ccc(Cl)cc2)c1SSc1c(-c2ccc(Cl)cc2)nc(N)n1C`, for which the GI50 was 2.38 µM (inactive) with ACHN; 2.58 µM (inactive) with BT-549; 2.44 µM (inactive) in the test on CCRF-CEM; 1.94 µM (inactive) in the test with COLO 205; 4.23 µM (inactive) with HCT-116; 1.05 µM (active) in the test on HL-60. Besides, the GI50 was 2.86 µM (inactive) with HOP-62; 2.99 µM (inactive) in the test on IGROV-1; 2.36 µM (inactive) with K562; 2.12 µM (inactive) in the test on M14; 2.05 µM (inactive) with MDA-MB-435; 5.25 µM (inactive) with MOLT-4. The GI50 in the test on NCI-H23 is 1.63 µM (inactive); with NCI-H460 it was 3.45 µM (inactive); in the test with PC-3, 1.84 µM (inactive); in the test on RPMI-8226, 1.31 µM (inactive); in the test with SF-268 it was 2.77 µM (inactive); in the test with SK-MEL-5, 1.82 µM (inactive). In the test on UACC-62, the GI50 was 2.3 µM (inactive).
As for `COc1ccc(-n2cnc3c(NCC(=O)O)ncnc32)cc1`, the GI50 is > 100 µM (inactive) in the test on ACHN; > 100 µM (inactive) in the test on BT-549; 48.5 µM (inactive) with CCRF-CEM; > 100 µM (inactive) in the test with COLO 205; > 100 µM (inactive) with HCT-116; > 100 µM (inactive) with HOP-62. For the same compound, the GI50 in the test on IGROV-1, in the test with K562, in the test with M14, in the test with MDA-MB-435, with MOLT-4 and in the test with NCI-H23 was > 100 µM (inactive) in each case. Besides, the GI50 in the test with NCI-H460, in the test with PC-3, in the test on RPMI-8226, in the test on SF-268, in the test on SK-MEL-5 and in the test with SR was > 100 µM (inactive) in each case. Also, the GI50 in the test on UACC-62 is > 100 µM (inactive).
Regarding `Cc1ccnc2nc3[nH]c4ccccc4c3cc12`, the GI50 is > 100 µM (inactive) in the test on ACHN; 48 µM (inactive) in the test on BT-549; 75 µM (inactive) in the test on CCRF-CEM; > 100 µM (inactive) in the test on COLO 205; > 100 µM (inactive) in the test with HCT-116; 75.7 µM (inactive) in the test with HOP-62. Moreover, the GI50 in the test on IGROV-1, in the test with K562, with M14, with MDA-MB-435, with MOLT-4 and in the test on NCI-H23 was > 100 µM (inactive) throughout. Besides, the GI50 was > 100 µM (inactive) in the test on NCI-H460; > 100 µM (inactive) with PC-3; > 100 µM (inactive) in the test with RPMI-8226; > 100 µM (inactive) with SF-268; > 100 µM (inactive) with SK-MEL-5; 71.1 µM (inactive) in the test on SR. Also, in the test on UACC-62, the GI50 was > 100 µM (inactive).
In the case of `O=C(N/N=C1\C(=O)Nc2c(Cl)cc(Cl)cc21)C(=O)Nc1cccc(C(F)(F)F)c1`, the GI50 is > 100 µM (inactive) with ACHN; > 100 µM (inactive) with BT-549; > 100 µM (inactive) in the test with CCRF-CEM; > 100 µM (inactive) in the test on COLO 205; > 100 µM (inactive) with HCT-116; 62.8 µM (inactive) in the test with HL-60. For the same compound, the GI50 with HOP-62 is > 100 µM (inactive); in the test on IGROV-1, > 100 µM (inactive); in the test on M14, > 100 µM (inactive); in the test with MDA-MB-435, 45.5 µM (inactive); in the test on MOLT-4 it was 85.1 µM (inactive); in the test with NCI-H23, > 100 µM (inactive). Further, the GI50 in the test on NCI-H460 was > 100 µM (inactive); in the test with PC-3, > 100 µM (inactive); in the test with SK-MEL-5, > 100 µM (inactive); in the test on SR it was 34.4 µM (inactive); in the test on UACC-62 it was > 100 µM (inactive).
Regarding `O=C(NCC(C(=O)OCc1ccccc1)C(=O)OCc1ccccc1)OCc1ccccc1`, the GI50 in the test with ACHN is > 100 µM (inactive); in the test on BT-549 it was 38.8 µM (inactive); in the test on COLO 205, > 100 µM (inactive); in the test with HOP-62, > 100 µM (inactive); in the test on IGROV-1, > 100 µM (inactive); in the test with K562, 60.1 µM (inactive). For the same compound, the GI50 was > 100 µM (inactive) in the test on M14; > 100 µM (inactive) in the test with MDA-MB-435; 19.2 µM (inactive) with MOLT-4; 59.3 µM (inactive) in the test on NCI-H23; 94.6 µM (inactive) in the test with NCI-H460; 35.4 µM (inactive) in the test on PC-3. Further, the GI50 in the test on RPMI-8226 was > 100 µM (inactive); in the test with SF-268, > 100 µM (inactive); in the test with SK-MEL-5, 35.9 µM (inactive); in the test on SR, 37.9 µM (inactive); with UACC-62, > 100 µM (inactive).
On to `S=C1N(/N=C/c2c3ccccc3cc3ccccc23)C(=N\c2ccccc2)/C(=N/c2ccccc2)N1c1ccccc1`, for which the GI50 in the test on BT-549, with COLO 205, with HCT-116, with HOP-62, in the test on IGROV-1 and in the test on K562 was > 100 µM (inactive) each time. Moreover, the GI50 in the test on M14, in the test on MDA-MB-435, in the test on MOLT-4, with NCI-H23, with NCI-H460 and with PC-3 was > 100 µM (inactive) in each case. Besides, the GI50 in the test with RPMI-8226, with SF-268, in the test with SK-MEL-5, in the test on SR and in the test on UACC-62 was > 100 µM (inactive) in each case.
As for `C/C(=N\Nc1nc2ccccc2o1)c1cccc[n+]1[O-]`, the GI50 is 12.6 µM (inactive) in the test with ACHN; 81.7 µM (inactive) in the test with BT-549; 4.3 µM (inactive) with CCRF-CEM; 4.73 µM (inactive) with COLO 205; 4.84 µM (inactive) in the test with HCT-116; 10.5 µM (inactive) in the test with HOP-62. In addition, the GI50 with IGROV-1 was 16.1 µM (inactive); with K562, 7.23 µM (inactive); with M14 it was 5.87 µM (inactive); in the test on MDA-MB-435, 44 µM (inactive); with MOLT-4, 1.5 µM (inactive); in the test with NCI-H23, 26.6 µM (inactive). The GI50 with NCI-H460 was 9.18 µM (inactive); with PC-3 it was 5.36 µM (inactive); in the test with RPMI-8226 it was 12 µM (inactive); in the test on SF-268 it was 19.1 µM (inactive); with SK-MEL-5, 23.9 µM (inactive); with SR it was 6.19 µM (inactive). Further, the GI50 in the test on UACC-62 is 46.1 µM (inactive).
Consider `c1ccc([P+](c2ccccc2)(c2ccccc2)c2ccc(-c3ccc([P+](c4ccccc4)(c4ccccc4)c4ccccc4)cc3)cc2)cc1`, for which the GI50 was 23.1 µM (inactive) in the test with ACHN; 47.9 µM (inactive) in the test on BT-549; 82.4 µM (inactive) in the test with CCRF-CEM; 16.4 µM (inactive) in the test with COLO 205; 18.2 µM (inactive) in the test on HCT-116; > 100 µM (inactive) with HL-60. For the same compound, the GI50 in the test on HOP-62 was 46.5 µM (inactive); in the test on IGROV-1, 3.67 µM (inactive); in the test on K562, > 100 µM (inactive); in the test on M14, 44.9 µM (inactive); in the test on MDA-MB-435, 26.7 µM (inactive); in the test on MOLT-4, > 100 µM (inactive). The GI50 in the test with NCI-H23 is 21.9 µM (inactive); in the test with NCI-H460 it was 27 µM (inactive); with PC-3, 35.5 µM (inactive); in the test with RPMI-8226, > 100 µM (inactive); in the test on SF-268 it was 58.5 µM (inactive); in the test with SK-MEL-5, 1.56 µM (inactive). Besides, the GI50 in the test on UACC-62 is 56.6 µM (inactive).
